Legend:
[1] = tested on: arrhythmia caused by introduction of calcium chloride; test: Antiarrhythmic activity on the model of arrhythmia caused by calcium chloride (antagonism towards calcium); format: in vivo, mice; settings: for Dose of calcium chloride causing arrhythmia: control 85.0; for Dose of calcium chloride causing heart arrest: control 100.0
Protocol: In experiments on white mice with a mass of 18-25 g narcotized with urethane an electrocardiogram was recorded in the second standard lead. A 2% solution of calcium chloride was introduced into the tail vein at a constant rate (0.01 ml for 2 seconds). The dose of calcium chloride causing arrhythmia and the dose causing heart arrest were determined. In experimental groups the test compounds were administered 20-40 minutes prior to the beginning of the experiment intraperitoneally.

[2] = Acute toxicity upon intraperitoneal administration to white mice; format: in vivo; settings: mouse, in vivo, ip, 14 days observation, average values with confidential limits at P=0.05
Protocol: (§1) The acute toxicity of the compounds according to the present invention was studied on white mice of both sexes with a mass of 20-25 g. A saturated aqueous solution of the compounds or a suspension in Tween-80 was administered to the animals intraperitoneally. The observation over the animals was carried out for 14 days. The results obtained were processed following the Litchfield-Wilkoxon method. As it follows from the data shown in Table 5 hereinbelow, the studied compounds have a very low acute toxicity, thus providing a large spectrum of the therapeutic effect.

[3] = tested on: white mice; test: as above; format: in vivo; settings: i.p.
Protocol: as §1

[4] = tested on: hypertensive male rats of the Akamoto-Aoki line; test: Variation of arterial pressure upon intraperitoneal administration to hypertensive rats; format: in vivo
Protocol: The study of hypotensive properties of the compounds of this invention has been carried out of hypertensive male rats of the Akamoto-Aoki line aged 25-30 weeks. The animals were divided into groups (7-10 rats in each) and for 2 weeks before the beginning of the experiment they were subjected to an every-day training for adaptation to the unit for measurements of the arterial pressure. The systolic and diastolic arterial pressure were measured indirectly on the tail artery. The level of the arterial pressure prior to administration of the test compounds was measured by way of a triple determination thereof--2 days, one day and right before the administration of the preparation. The compounds were administered intraperitoneally in the form of a 2.5% aqueous solution or a 2.5% suspension in Twin-80 in the dose of 50 mg/kg. The measurement of the arterial pressure was effected 30 minutes, 1, 2, 3 and 4 hours and in some cases 24 hours after the administration of the preparation. For a number of compounds featuring a high efficiency, also determined was the dose causing reduction of the arterial pressure by 30% as compared with the starting level (ED30). The statistical processing of the data obtained was carried out using the Student certainty criterion.

[5] = tested on: spontaneously hypertensive rats of the Akamoto-Aoki line; test: Systolic arterial pressure of spontaneously hypertensive rats upon a repeated peroral administration; format: in vivo
Protocol: Thus, after a four-days course of administration (once a day, per os) of the compounds according to the present invention an essential reduction of the arterial pressure in the test animals is observed which is not returned to the initial level even an expiration of four days after discontinuation of the preparation administration, whereas the hypotensive effect of nifedipine is manifested for only 8 hours.

[6] = 30 minutes, 50 mg/kg i.p. (nifedipine 1 mg/kg i.p.)
[7] = 1 hour, 50 mg/kg i.p. (nifedipine 1 mg/kg i.p.)
[8] = 2 hours, 50 mg/kg i.p. (nifedipine 1 mg/kg i.p.)
[9] = 4 hours, 50 mg/kg i.p. (nifedipine 1 mg/kg i.p.)
[10] = after four-days p.o. course, benzyl 40 mg/kg, allyl 50 mg/kg, nifedipine dose not given
[11] = p.o. once a day, benzyl 40 mg/kg, allyl 50 mg/kg, nifedipine dose not given
[12] = p.o., benzyl 40 mg/kg, allyl 50 mg/kg, nifedipine dose not given

Row | Compound | Dose of calcium chloride causing arrhythmia ([1]; compound dose 5 mg/kg i.p.) | Dose of calcium chloride causing heart arrest ([1]; compound dose 5 mg/kg i.p.) | Dose of calcium chloride causing arrhythmia ([1]; compound dose 15 mg/kg i.p.) | Dose of calcium chloride causing heart arrest ([1]; compound dose 15 mg/kg i.p.) | LD50 at 336 h [2] [mg/kg] | Relative toxicity with respect to quinidine (LD50 / LD50 of quinidine) [3] | Average variation of the diastolic arterial pressure [4, 6] | Average variation of the systolic arterial pressure [4, 6] | Average variation of the diastolic arterial pressure [4, 7] | Average variation of the systolic arterial pressure [4, 7] | Average variation of the diastolic arterial pressure [4, 8] | Average variation of the systolic arterial pressure [4, 8] | Average variation of the diastolic arterial pressure [4, 9] | Average variation of the systolic arterial pressure [4, 9] | other results
1 | CCC[N+](C)(C)NCCC(=O)[O-] [3-(2,2-dimethyl-2-propylhydrazinium)propionate] | 112.5 | 123.0 | 125.3 | 140.5 | 1800 | 11.5 | – | – | – | – | – | – | – | – | –
2 | C=C[C@H]1C[N@@]2CC[C@H]1C[C@@H]2[C@@H](O)c1ccnc2ccc(OC)cc12 [Quinidine, reference compound] | – | – | – | – | 156 | 1 | – | – | – | – | – | – | – | – | Dose of calcium chloride causing arrhythmia ([1]; compound dose 3 mg/kg i.p.): 126.9; Dose of calcium chloride causing heart arrest ([1]; compound dose 3 mg/kg i.p.): 136.0; Dose of calcium chloride causing arrhythmia ([1]; compound dose 10 mg/kg i.p.): 120.8; Dose of calcium chloride causing heart arrest ([1]; compound dose 10 mg/kg i.p.): 133.5
3 | CC[N+](CC)(CC)NCCC(=O)[O-] [3-(2,2,2-Triethylhydrazinium)propionate, 3-(2,2,2-triethylhydrazinium)propionate monohydrate] | 100.0 | 120.0 | 127.0 | 142.5 | > 3000 | above 19.2 | – | – | – | – | – | – | – | – | –
4 | C[N+](C)(CC[N+](C)(C)NCCC(=O)[O-])NCCC(=O)[O-] [3-(2,2-dimethyl-2-[1',1'-dimethyl-2'-carboxylatoethylhydrazin-1'-ium]-ethylhydrazinium)propionate dihydrate] | 96.0 | 112.0 | 108.5 | 120.0 | 2100 | 13.4 | – | – | – | – | – | – | – | – | –
5 | CC[N+](C)(CC)NCCC(=O)[O-] [3-(2-methyl-2,2-diethylhydrazinium)propionate monohydrate] | 105.5 | 118.6 | 120.0 | 136.0 | 1450 | 9.3 | +10 % of the initial | +4 % of the initial | -4 % of the initial | +2 % of the initial | +1 % of the initial | 0 % of the initial | -8 % of the initial | -6 % of the initial | –
6 | C#CC[N+](C)(C)NCCC(=O)[O-] [3-(2,2-dimethyl-2-propargylhydrazinium)propionate hydrogen bromide] | 110.4 | 125.0 | 120.0 | 135.0 | 1650 | 10.5 | -17 % of the initial | -6 % of the initial | -16 % of the initial | -10 % of the initial | -7 % of the initial | -10 % of the initial | -10 % of the initial | -6 % of the initial | –
7 | COC(=O)C1=C(C)NC(C)=C(C(=O)OC)C1c1ccccc1[N+](=O)[O-] [Nifedipine, reference compound] | – | – | – | – | – | – | -8 % of the initial | -4 % of the initial | -14 % of the initial | -12 % of the initial | -21 % of the initial | -8 % of the initial | -31 % of the initial | -11 % of the initial | Systolic arterial pressure, 5th day [5, 10]: 178 mm Hg; Systolic arterial pressure, 8th day [5, 10]: 186 mm Hg; Systolic arterial pressure, 10th day [5, 10]: 182 mm Hg; Systolic arterial pressure, 2nd day after administration ([5]; p.o. once a day, allyl 50 mg/kg, nifedipine dose not given): 148 mm Hg; Systolic arterial pressure, 1st day after administration ([5]; p.o. once a day, benzyl 40 mg/kg (initial 195.8), allyl 50 mg/kg (initial 176.6), nifedipine dose not given (initial 184.0)): 150.0 mm Hg; Systolic arterial pressure, 2nd day before administration [5, 11]: 186 mm Hg; Systolic arterial pressure, 3rd day after administration [5, 11]: 153 mm Hg; Systolic arterial pressure, 4th day after administration [5, 11]: 146 mm Hg; Systolic arterial pressure, 4th day before administration [5, 11]: 180 mm Hg; Systolic arterial pressure, 3rd day before administration ([5]; p.o. once a day, benzyl 40 mg/kg, nifedipine dose not given): 183 mm Hg; Percent in parentheses (change of systolic pressure from initial), 2nd day after administration ([5]; p.o., allyl 50 mg/kg, nifedipine dose not given): 20%; Percent in parentheses (change of systolic pressure from initial), 1st day after administration [5, 12]: 18%; Percent in parentheses (change of systolic pressure from initial), 3rd day after administration [5, 12]: 17%; Percent in parentheses (change of systolic pressure from initial), 4th day after administration [5, 12]: 21%; Percent in parentheses (change of systolic pressure from initial), 4th day before administration [5, 12]: 2%; Percent in parentheses (change of systolic pressure from initial), 5th day [5, 12]: 3%; duration of hypotensive effect ([5]; repeated p.o.): 8 h
8 | C[N+](C)(Cc1cccc2ccccc12)NCCC(=O)[O-] [3-(2,2-dimethyl-2-naphthylmethylhydrazinium)propionate] | 108.0 | 132.5 | 126.7 | 143.0 | > 3000 | above 19.2 | 0 % of the initial | 0 % of the initial | -3 % of the initial | 0 % of the initial | -2 % of the initial | -3 % of the initial | -14 % of the initial | -5 % of the initial | Average variation of the diastolic arterial pressure ([4]; 24 hours, 50 mg/kg i.p.): -7 % of the initial; Average variation of the systolic arterial pressure ([4]; 24 hours, 50 mg/kg i.p.): -4 % of the initial

From patent publication US4704403A, “3-(2,2,2-trisubstituted hydrazinium) propionates” (priority 1983, dated 1987)
